Results from US20140199714A1, “METHOD FOR DETECTING CANCER CELLS METASTASIZING INTO SENTINEL LYMPH NODE” (SHINSHU UNIVERSITY, priority 2008, published 2014).

Experiments:
[1] = system: attachment of carcinoma cells to human LECs; experiment: In vitro human LEC attachment assay (ATP or MDA-MB-231 supernatant stimulation); assay type: cell-based; conditions: 48 hrs. stimulation (10^−7M ATP or MDA-MB-231 supernatant) vs DMEM/F12 Ham negative control; p<0.01; n=5
Method: The human LECs were plated to form a monolayer on type I collagen-coated 35 mm plates and incubated to confluence at 37° C. in 5% O2, 5% CO2, and 90% N2. The LECs were kept in serum-starved medium of EBM-2 with 3% FBS. Selected plates were treated with 10^−7M ATP or the supernatant of culture medium of MDA-MB-231 cells for 48 hrs. In some experiments, 10^−6M suramin was simultaneously added to the plates during 48 hrs. treatment with 10^−7M ATP or the culture medium supernatant of MDA-MB-231 cells.
In some experiments, the plates were also treated with anti-human-ICAM-1 antibody (available from R&D Systems, US) for 30 min after 48 hrs. treatment with the culture medium supernatant of MDA-MB-231 or 10^−7M ATP. Breast carcinoma cells stained with PKH26 fluorescent dye (available from SIGMA, US) were then plated at 5×10^4 cells per plate and incubated for 30 min. at 37° C. Unbound cells were removed by aspiration and the plates washed with DMEM/F12 three times. Attachment was quantitated by counting cells under ×100 magnification using a microscope (available from Leica, Switzerland).

ICAM-1 on human LECs = experiment: Immunohistochemical expression of ICAM-1 on cultured human LECs; assay type: cell-based
prostate cancer cells = conditions: via P2 receptors; cited from earlier work
E-selectin on human LECs = experiment: Immunohistochemical expression of E-selectin on cultured human LECs; assay type: cell-based; conditions: 18 hrs.-stimulation with 10 ng/mL TNF-α or 100 ng/mL LPS
Method: (§1) Using an indirect immunohistochemical technique, the inventors examined the effects of the supernatants of culture medium of two kinds of carcinoma cells, MDA-MB-231 and MCF-7, on the expression of adhesion molecules such as E-selectin, P-selectin, vascular cell adhesion molecule (VCAM)-1, and intercellular adhesion molecule (ICAM)-1 on the human LECs. The carcinoma cells were plated in DMEM/F12 with 10% FBS, which was replaced the following day with DMEM/F12 with 3% FBS, and then collected after overnight culture. The collected solution was centrifuged at 2,000 rpm for 5 min. at 4° C. To examine the effects of the supernatants on the expression of the adhesion molecules on the human LECs, 1 mL of each collected solution was added to starvation culture medium, EBM-2 with 3% FBS of the human LECs, and then stimulated for 48 hrs. on the cells. In some experiments, the supernatant solutions at different concentrations (1/100 or 1/10,000 dilution) were constructed with appropriate volumes of DMEM/F12 with 3% FBS.
(§2) Indirect immunohistochemical studies were performed on the cultured LECs seeded or glass slides coated with type I collagen, and then the cells were fixed with 3.3% formalin in phosphate-buffered saline solution (PBS), for 20 min. at room temperature. The cells were washed three times with PBS, and then incubated overnight at 4° C. with primary polyclonal human antisera to E-selectin/CD62E (dilution 10 μg/mL, available from R&D Systems, US), P-selectin/CD62P (dilution 10 μg/mL, available from R&D Systems, US), VCAM-1/CD106 (dilution 10 μg/mL, available from R&D Systems, US), and ICAM-1/CD54 (dilution 10 μg/mL, available from R&D Systems, US).
(§3) Before primary staining, the cultured cells were permeabilized with 0.1% TRITON-X. After washing three times in PBS, the cells were incubated for 1 hr. at room temperature with 1:100 diluted ALEXA FLUOR 488 donkey anti-mouse IgG (available from Invitrogen, US). The nuclei of cultured cells were counter-stained and mounted with PROLONG GOLD antifade reagent with 4′-6-diamidine-2-phenylindole (DAPI) (available from Molecular Probes, US), examined by a fluorescent microscope (Leica, Switzerland), and photographed.
(§4) Immunohistochemistry was performed on the cultured human LECs or the fresh-frozen SLNs isolated from the breast cancer patients. In brief, the cultured LECs were fixed with 10% formalin in the phosphate-buffered saline solution (PBS) at room temperature. The cells were incubated for 4 hrs. at room temperature with primary polyclonal human antisera platelet-endothelial cell adhesion molecule (PECAM)-1 (dilution 1:100, available from BD Biosciences, US), lymphatic vessel endothelial hyaluronan receptor (LYVE)-1 (dilution 1:50, available from RELIATech, Germany), PROX-1 (dilution 1:50, available from AngioBio, US), podoplanin (dilution 1:50, available from AngioBio, US), vascular endothelium growth factor receptor 3 (VEGF R3) (dilution 1:50, available from Santa Cruz, US), E-selectin/CD62E (dilution 1:50, available from R&D systems, US), P-selectin/CD62P (dilution 1:50, available from R&D systems, US), vascular cell adhesion molecule (VCAM)-1/CD106 (dilution 1:50, available from R&D systems, US), and intercellular adhesion molecule (ICAM)-1/CD54 (dilution 1:50, available from R&D systems, US). Before the staining, permeabilization of the cultured cells with 0.1% TRITON-X was performed. Then, the cells were stained using the following antibodies: ALEXA FLUOR 488 chicken anti-rabbit IgG or ALEXA FLUOR 488 donkey anti-mouse IgG (available from Invitrogen, US). The nuclei of the cultured cells were counter-stained and mounted with ProLong Gold antifade reagent with 4′-6-diamidine-2-phenylindole (DAPI) (available from Molecular Probes, US). The cultured cells were examined by a fluorescent microscope (available from Leica, Germany) and photographed. […]

P-selectin on human LECs = experiment: Immunohistochemical expression of P-selectin on cultured human LECs; assay type: cell-based; conditions: 18 hrs.-stimulation with 10 ng/mL TNF-α or 100 ng/mL LPS
Method: as §1, §2
Before primary staining, the cultured cells were permeabilized with 0.1% TRITON-X. After washing three times in PBS, the cells were incubated for 1 hr. at room temperature with 1:100 diluted ALEXA FLUOR 488 donkey anti-mouse IgG (available from Invitrogen, US). […]

VCAM-1 on human LECs = experiment: Immunohistochemical expression of VCAM-1 on cultured human LECs; assay type: cell-based; conditions: 18 hrs.-stimulation with 10 ng/mL TNF-α or 100 ng/mL LPS
Method: as §1, §2, §3, §4

[2] = system: F-actin in LECs derived from human collecting lymph vessel; experiment: Staining of cytoskeletal protein F-actin in human LECs; assay type: cell-based; conditions: 10 ng/mL TNF-α; 1 ng/mL and 10 ng/mL IL-1β; 2 hrs. at 37° C.; vs negative control
Method: LECs derived from human collecting lymph vessel, which were transplanted into a culture system, were plated on glass slide, and repeatedly subcultured to confluence. Stimulating factors of 10 ng/mL of tumor necrosis factor-α (TNF-α) of Catalog No. T-0157 (available from SIGMA, US), 1 ng/mL and 10 ng/mL of interleukin-1β (IL-1β) of Catalog No. 200-01B (available from PeproTech, US) were respectively dissolved in EBM-2 containing 3% FBS of Catalog No. CC-3156 (available from Sankyo Junyaku Co., Ltd., Japan) and added onto the cells, and then the cells were incubated for 2 hrs. at 37° C. They were fixed with 3.7% formalin. They were washed with PBS solution, and then still stood in PBS solution containing 0.1% TRITON X-100 of Catalog No. X-100 (available from SIGMA, US) for 5 min. Additionally they were washed with PBS solution, and then phalloidin-FITC antibody of Catalog No. P-5282 (available from SIGMA, US) diluted 500 times with PBS solution containing 0.1% BSA was added thereto. They were still stood for 2 hrs. at room temperature. After they were washed with PBS solution, and mounted in MOBI GLOW MOUNTING MEDIUM. Also negative control was similarly prepared except for using no stimulating factor. […] The LECs of the negative control without the stimulating factor indicate obscure green fluorescence, and there were few expression of F-actin.

Compound | in vitro attachment of carcinoma cells to human LECs [1] | expression of ICAM-1 on human LECs (ICAM-1 on human LECs; 10^−8 or 10^−7M ATP for 48 hrs.) | inhibition of growth of prostate cancer cells in vitro (prostate cancer cells) | expression of E-selectin on human LECs (positive controls) (E-selectin on human LECs) | expression of P-selectin on human LECs (positive controls) (P-selectin on human LECs) | expression of VCAM-1 on human LECs (positive controls) (VCAM-1 on human LECs) | expression of F-actin (phalloidin-FITC fluorescence) [2] | expression of ICAM-1 on human LECs (positive controls) (ICAM-1 on human LECs; 18 hrs.-stimulation with 10 ng/mL TNF-α or 100 ng/mL LPS)
Nc1ncnc2c1ncn2[C@@H]1O[C@H](COP(=O)(O)OP(=O)(O)OP(=O)(O)O)[C@@H](O)[C@H]1O [ATP] | significant increase | marked expression | up to 90% |  |  |  |  | 
TNF-α |  |  |  | marked expression | marked expression | marked expression | increase of expression of F-actin | marked expression
